Results published in BindingDB's records for PubMed 8386236 (Whitby Research, 1993).

What was measured:
Adenosine receptor A2b = biological target: T1, Adenosine receptor A2b (Bos taurus, UniProt Q1LZD0)
T1 sequence (Q1LZD0 whole entry): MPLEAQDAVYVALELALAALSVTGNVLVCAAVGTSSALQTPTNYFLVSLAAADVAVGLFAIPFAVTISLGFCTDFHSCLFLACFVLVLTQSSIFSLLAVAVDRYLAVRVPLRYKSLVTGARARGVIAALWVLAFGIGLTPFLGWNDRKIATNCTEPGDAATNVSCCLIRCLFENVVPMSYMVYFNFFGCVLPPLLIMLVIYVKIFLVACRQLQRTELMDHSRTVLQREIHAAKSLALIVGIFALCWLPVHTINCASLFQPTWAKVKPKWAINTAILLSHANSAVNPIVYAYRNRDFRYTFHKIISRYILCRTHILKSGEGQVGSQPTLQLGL

Adenosine receptor A2a = Adenosine receptor A2a (Cavia porcellus, UniProt P46616)
Sequence of Adenosine receptor A2a (P46616 whole entry): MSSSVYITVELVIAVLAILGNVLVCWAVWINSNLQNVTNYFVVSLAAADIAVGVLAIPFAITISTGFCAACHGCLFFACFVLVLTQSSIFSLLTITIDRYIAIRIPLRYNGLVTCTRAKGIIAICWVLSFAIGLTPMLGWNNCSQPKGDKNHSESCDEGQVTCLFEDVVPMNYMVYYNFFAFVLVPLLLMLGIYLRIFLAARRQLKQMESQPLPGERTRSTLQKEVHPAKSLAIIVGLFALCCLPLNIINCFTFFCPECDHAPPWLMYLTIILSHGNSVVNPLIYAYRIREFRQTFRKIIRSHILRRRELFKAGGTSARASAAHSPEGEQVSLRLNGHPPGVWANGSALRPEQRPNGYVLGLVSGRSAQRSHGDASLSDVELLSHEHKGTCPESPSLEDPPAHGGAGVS

Adenosine receptor A1 [1] = biological target: T2, Adenosine receptor A1 (Bos taurus, UniProt P28190)
T2 sequence (P28190 whole entry): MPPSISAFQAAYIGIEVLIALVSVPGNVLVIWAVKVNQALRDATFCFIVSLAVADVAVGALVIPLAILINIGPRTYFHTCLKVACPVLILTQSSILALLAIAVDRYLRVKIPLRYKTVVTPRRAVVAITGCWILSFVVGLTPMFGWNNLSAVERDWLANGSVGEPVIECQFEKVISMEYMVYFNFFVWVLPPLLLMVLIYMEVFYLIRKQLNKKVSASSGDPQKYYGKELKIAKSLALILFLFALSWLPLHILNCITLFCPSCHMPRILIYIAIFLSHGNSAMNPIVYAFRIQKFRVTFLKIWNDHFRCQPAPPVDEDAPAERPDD

Adenosine receptor A1 [2] = biological target: T3, Adenosine receptor A1 (Cavia porcellus, UniProt P47745)
T3 sequence (P47745 whole entry): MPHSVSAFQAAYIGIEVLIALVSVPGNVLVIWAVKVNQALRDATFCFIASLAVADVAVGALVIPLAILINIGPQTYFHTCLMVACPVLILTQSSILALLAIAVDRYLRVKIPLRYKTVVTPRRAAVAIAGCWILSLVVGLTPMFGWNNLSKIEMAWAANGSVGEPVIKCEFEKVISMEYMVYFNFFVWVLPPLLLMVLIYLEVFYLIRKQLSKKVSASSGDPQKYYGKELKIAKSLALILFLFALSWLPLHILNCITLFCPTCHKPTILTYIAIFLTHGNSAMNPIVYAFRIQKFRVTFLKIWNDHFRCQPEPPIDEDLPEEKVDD

Nc1nc(Cl)nc2c1ncn2[C@@H]1O[C@H](CO)[C@@H](O)[C@H]1O [2-CI Adenosine]
Ki (Adenosine receptor A2b): 6.92 µM
Ki (Adenosine receptor A2a): > 10 µM

CC(Cc1ccccc1)Nc1ncnc2c1ncn2C1OC(CO)C(O)C1O (centres undefined) [R-N6-(2-phenylisopropyl) adenosine]
Ki (Adenosine receptor A1 [1]): 18.2 nM
Ki (Adenosine receptor A1 [2]): 1950 nM
